According to PubChem BioAssay (NCI):
Values joined by “and” are separate entries in the source; they are usually repeats but may differ in a detail not shown here. Equal values may be shown once.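 Five compound concentrations were applied to cells in 96-well plates for 48 hours; endpoints were derived by simple linear interpolation of the resulting dose-response curve. GI50: concentration for 50% inhibition of growth. TGI denotes the concentration required for complete inhibition of growth.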

Columns and labels:
Experiment in all cases: NCI tumour cell line growth inhibition, 48 h
[1] = tested on: MDA-MB-435
[2] = tested on: RXF 393 renal
[3] = tested on: NCI-H460 lung
[4] = tested on: HCT-15 colon
[5] = tested on: HCT-116 colon
[6] = tested on: UACC-62 melanoma
[7] = tested on: SW-620 colon
[8] = tested on: NCI-H226 lung
[9] = tested on: T-47D breast
[10] = tested on: IGROV1 ovarian

| Structure (SMILES) | GI50 [1] | TGI [1] | GI50 [2] | TGI [2] | TGI [3] | GI50 [4] | TGI [4] | TGI [5] | GI50 [6] | TGI [6] | GI50 [7] | TGI [7] | GI50 [8] | TGI [8] | GI50 [9] | TGI [9] | GI50 [10] | TGI [10] | GI50 [3] | GI50 [5] |
| --- | --- | --- | --- | --- | --- | --- | --- | --- | --- | --- | --- | --- | --- | --- | --- | --- | --- | --- | --- | --- |
| CC(=O)C1(O)Cc2c(O)c3c(c(O)c2C(OC2CC(N)C(O)C(C)O2)C1)C(=O)c1ccccc1C3=O (stereo not drawn) | 0.0674 µM | 0.389 µM and 0.47 µM | 0.15 µM and 0.0166 µM | 0.553 µM and 0.0785 µM | 0.0836 µM and 0.0123 µM | 0.0156 µM | 0.52 µM and 0.348 µM | 0.62 µM and 0.174 µM | < 0.0123 µM | 0.306 µM and 0.0842 µM | < 0.0114 µM | 0.597 µM and 0.262 µM | < 0.0113 µM | 0.139 µM and 0.0538 µM | < 0.0145 µM | 0.631 µM and 0.219 µM | 0.0383 µM | 0.525 µM and 0.503 µM | – | – |
| Brc1cccc[n+]1-c1ccc2cc(-[n+]3ccccc3Br)ccc2c1 | – | > 100 µM | – | 87.6 µM | > 100 µM | – | > 100 µM | > 100 µM | – | > 100 µM | – | > 100 µM | – | > 100 µM | – | 58.4 µM | – | 28 µM | – | – |
| OC(CN1CCCCC1)c1ccc(/C=C/c2ccc(Cl)cc2)cc1 (stereo not drawn) | – | > 100 µM | – | > 100 µM | > 100 µM | – | 76.3 µM | > 100 µM | – | 44.9 µM | – | > 100 µM | – | > 100 µM | – | > 100 µM | – | 66.5 µM | – | – |
| COc1cc2c(cc1OCCCCCOc1cc3c(cc1OC)C(=O)N1CCC[C@H]1CN3)N=C[C@@H]1CCCN1C2=O | – | 20.1 µM | – | 72 µM | > 100 µM | – | 43.8 µM | 24.1 µM | – | 6.72 µM | – | 23.9 µM | – | 29.1 µM | – | > 100 µM | – | 21.3 µM | – | – |
| COc1ccc2[nH]c(O)c(/C=c3/cc4c(c(-c5ccc(F)cc5)n3)=Nc3ccccc3-4)c2c1 | 2.05 µM | 6.34 µM | 2.25 µM | 7.53 µM | 4.01 µM | 1.91 µM | 4.35 µM | 3.04 µM | 1.54 µM | 3.2 µM | 1.85 µM | 3.89 µM | 34.2 µM | > 100 µM | 2.06 µM | 6.94 µM | 19.6 µM | 48.8 µM | 1.82 µM | 1.67 µM |
| CCCC1(N)CC(OC)OC(C)C1O (stereo not drawn) | – | > 100 µM | – | > 100 µM | > 100 µM | – | > 100 µM | > 100 µM | – | > 100 µM | – | > 100 µM | – | > 100 µM | – | > 100 µM | – | > 100 µM | – | – |
| CC1=CC(=O)/C(=C/n2c(=S)[nH]c3ccccc32)C(=O)O1 | – | > 100 µM | – | > 100 µM | > 100 µM | – | > 100 µM | > 100 µM | – | > 100 µM | – | > 100 µM | – | > 100 µM | – | > 100 µM | – | > 100 µM | – | – |
| OC1c2ccccc2C(O)C2OC12 (stereo not drawn) | – | > 100 µM | – | > 100 µM | > 100 µM | – | > 100 µM | > 100 µM | – | > 100 µM | – | > 100 µM | – | > 100 µM | – | > 100 µM | – | > 100 µM | – | – |
| C=C1c2nc3ccccc3n2C=C(c2ccc(OC)cc2)N1c1ccc(OCCN2CCOCC2)cc1 | – | > 100 µM | – | > 100 µM | > 49.9 µM | – | > 100 µM | > 100 µM | – | > 100 µM | – | > 100 µM | – | > 100 µM | – | > 100 µM | – | > 100 µM | – | – |
